Test results reported in patent US20210244791A1, “APPLICATION OF PEDF-DERIVED SHORT PEPTIDES IN TENDON HEALING” (BRIM Biotechnology, Inc., priority 2018, published 2021).

test system: Primary rabbit TSPC; test: TSPC cell proliferation assay (fluorometric kit); format: cell-based; details: 10 μM peptide, low serum media, PDSP solvent (DMSO) set as 100%, mean±SE of three experiments
Method: Primary rabbit TSPC were cultured to near-confluence in a 75T cell culture flask and then verified by immunostaining of a TSPC marker, nucleostemin (>98%; green color). Nuclei were stained with Hoechst 33258 (blue color) and visualized by an epifluorescence microscopy. The nucleostemine-positive TSPC were treated with 10 μM 29-mer or its variants for 24 h. The numbers of TSPC after 24-h expansion were detected with a cell proliferation assay kit (BioVision; catalog number: K307). The TSPC treated with PDSP solvent was set as 100%. Results are expressed as mean±SE of three independent experiments.
Achilles tendons from New Zealand White rabbits (6-8 months old, 3.0-4.0 kg) were used in this study. Achilles tendons were washed two times with sterile phosphate-buffered saline (PBS) containing 50 μg/ml gentamicin. The tendon and tendon sheath were cut into small pieces (1-2 mm^3). Each 100 mg of fragment was then digested in a solution containing 3 mg/ml of type I collagenase and 4 mg/ml of dispase in 1 ml balance salt solution (BSS; Alcone) at 37° C. for 4 hours. The digested tissues were washed three times with PBS and collected by centrifugation (800 g for 10 min). The digested tissues were placed in tissue-culture plates (Falcon Labware; NJ, USA) and resuspended in high-glucose DMEM supplemented with 10% FBS and 50 μg/ml gentamycin, and maintained at 37° C. with 5% CO2. After 5 days, the medium was changed to remove the loosened tissue residues. Subsequently, tendon cells were incubated with 10% FBS medium for 2 days, and then cultured with a basal medium (2% FBS, 1% ITSE, 300 μg/ml L-glutamine, 1% antibiotic-antimicotic solutions) for further 10 days. Culture medium was changed every 3 days. For passage, tendon cells were harvested with 0.25% trypsin/EDTA, cell counting by haemocytometer, approximately 5×10^3 cells were seeded in each well of a 96-well cell culture plate or 2×10^5 cells were seeded in each well of a 6-well cell culture plate for 24 h. These expanded tendon cells were then treated with 10 μM 29-mer or its variants in fresh basal medium for further 24 h and subjected to cell proliferation assay and western blot analysis, respectively.
Cell Proliferation Assay Kit (Fluorometric) was purchased from BioVision (Catalog #: K307) and used to evaluate cell proliferation according to the manufacturer's recommendations. The fluorescence was read at 480 nm for excitation and 538 nm for emission on a SPECTRAmax GEMINI XS fluorescence microplate spectrophotometer (Molecular Devices, Sunnyvale, Calif., USA).
Rabbit TSPC isolation was described above. TSPC in low serum media were treated with 10 μM of one of the 29-mer variants for 24 h. Cell proliferation was examined by a cell proliferation kit based on a kit provided nuclear dye that specifically binds to nucleic acid in the cell and generates green fluorescence.

Substance | TSPC proliferation (numbers of TSPC after 24-h expansion) [%]
A107G: 29-mer variant with single glycine alteration at residue 107 (SLGAEQRTESIIHRGLYYDLISSPDIHGT; UniProt P36955 93-121, looked up, variant A107G) | 117±3.8
P116A: 29-mer variant with single alanine alteration at residue 116 (SLGAEQRTESIIHRALYYDLISSADIHGT; UniProt P36955 93-121, looked up, variant P116A) | 115±3.7
R99A: 29-mer variant with single alanine alteration at residue 99 (SLGAEQATESIIHRALYYDLISSPDIHGT; UniProt P36955 93-121, looked up, variant R99A) | 116±7.0
